Source: patent US5475014A, “Oxazolidone derivative” (Eisai Co., Ltd., priority 1991, dated 1995)

Experiments:
MAO-B = target: T1, MAO-B (Rattus norvegicus, UniProt P19643); assay: MAO-B inhibition activity with rat forebrain (14C-PEA substrate); assay type: biochemical, rat (male Wistar); conditions: 10^-5 M, read-out: Inhibiting activity MAO-B (at 10^-5 M)
T1 construct: suspension of 1 part by volume of the forebrains of male Wistar rats; from tissue; host or cells: forebrain of male Wistar rats, suspension in potassium phosphate buffer
T1 sequence (P19643 1-520): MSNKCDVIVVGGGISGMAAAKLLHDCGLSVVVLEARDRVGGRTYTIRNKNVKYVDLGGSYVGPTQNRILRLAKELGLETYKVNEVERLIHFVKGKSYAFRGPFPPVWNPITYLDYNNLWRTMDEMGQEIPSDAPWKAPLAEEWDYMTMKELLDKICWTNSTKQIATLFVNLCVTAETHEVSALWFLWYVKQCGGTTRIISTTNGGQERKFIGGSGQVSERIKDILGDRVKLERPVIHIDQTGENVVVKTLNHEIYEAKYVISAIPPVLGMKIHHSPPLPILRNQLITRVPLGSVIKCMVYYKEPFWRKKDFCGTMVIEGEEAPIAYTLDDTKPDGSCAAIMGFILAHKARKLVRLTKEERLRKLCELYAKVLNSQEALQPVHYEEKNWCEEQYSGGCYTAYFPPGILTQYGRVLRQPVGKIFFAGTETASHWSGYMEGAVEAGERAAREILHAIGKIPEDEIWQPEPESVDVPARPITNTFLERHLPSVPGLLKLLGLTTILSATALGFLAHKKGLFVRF

MAO-A = target: T2, MAO-A (Rattus norvegicus, UniProt P21396); assay: MAO-A inhibition activity with rat forebrain (14C-5-HT substrate); assay type: biochemical, rat (male Wistar); conditions: 5-HT 200 μM, read-out: Inhibiting activity MAO-A, IC50
T2 construct: suspension of 1 part by volume of the forebrains of male Wistar rats; from tissue; host or cells: forebrain of male Wistar rats, suspension in potassium phosphate buffer
T2 sequence (P21396 1-526): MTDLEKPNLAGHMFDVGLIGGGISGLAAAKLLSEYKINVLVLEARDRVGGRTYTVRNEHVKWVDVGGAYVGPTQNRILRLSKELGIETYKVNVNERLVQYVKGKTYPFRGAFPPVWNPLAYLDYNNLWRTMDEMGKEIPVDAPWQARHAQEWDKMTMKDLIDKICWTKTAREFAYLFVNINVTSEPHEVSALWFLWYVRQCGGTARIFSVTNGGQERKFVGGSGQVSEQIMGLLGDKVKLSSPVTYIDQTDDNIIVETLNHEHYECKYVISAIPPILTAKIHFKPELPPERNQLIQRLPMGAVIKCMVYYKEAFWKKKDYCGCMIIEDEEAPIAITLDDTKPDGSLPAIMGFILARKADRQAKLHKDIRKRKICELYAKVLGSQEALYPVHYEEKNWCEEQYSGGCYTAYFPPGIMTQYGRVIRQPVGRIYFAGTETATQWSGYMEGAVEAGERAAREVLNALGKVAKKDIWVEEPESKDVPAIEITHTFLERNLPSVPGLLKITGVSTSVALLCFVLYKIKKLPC
Method: Determination of MAO inhibition activity with the use of rat forebrain:
The MAO inhibition activity was determined by a method of Prada et al. (J. Pharmacol. Exp. Ther., 248, 400-414 (1989)).
The enzyme reaction was conducted in 300 μl of a solution having the following composition:
^14 C-labelled enzyme substrate
The enzyme source used was a suspension of 1 part by volume of the forebrains of male Wistar rats in 5 parts by volume of a 0.1M potassium phosphate buffer (pH 7.4). The enzyme source was mixed with the test compound and the mixture was prewarmed at 37° C. for 10 min. Then the enzyme substrate was added thereto to initiate the enzyme reaction. After 10 min, 200 μl of 2N hydrochloric acid was added to terminate the reaction.
As the substrates for MAO-A and MAO-B, 5-HT (serotonin) and PEA (β-phenethylamine) each labelled with ^14 C were used, respectively. The specific radioactivities of 5-HT and PEA were regulated to 11.1 MBq/mmol and 29.6 MBq/mmol, respectively, and the concentrations of them were 200 μM and 20 μM, respectively, in the reaction.
The test compound was dissolved in distilled water so that an intended concentration could be obtained in the enzyme reaction. When the test compound was insoluble in water, it was dissolved in dimethyl sulfoxide to obtain a 10% solution.
Diethyl ether and n-heptane were used as […], respectively. After the termination of the enzyme reaction, 3 ml of the solvent was added to the reaction mixture and shaken for 10 min. After centrifugation at 3,000 rpm for about 10 min, the lower aqueous layer was frozen in dry ice/acetone. The upper organic layer was recovered by decantation and the radioactivity thereof was determined with a liquid scintillation counter.
The inhibiting activities of the test compounds against MAO A and MAO B are given at the concentrations of 10^-7 M and 10^-6 M or by IC50 values.

COCC1CN(c2ccc3nc(C(C)(O)CCC#N)sc3c2)C(=O)O1 (centres unmarked) [Example 37]
inhibition at 10 µM (MAO-B): 35%
IC50 (MAO-A): 45 nM
